Data reported in patent US10800792B2, “Inhibitors of Bruton's tyrosine kinase and method of their use” (JANSSEN PHARMACEUTICA NV, priority 2015, dated 2020).

Biological target: unphosphorylated-BTK kinase domain (UP-BTK), GST-tagged human BTK (389-659aa) (Homo sapiens (Human), UniProt Q06187)
Assay: BTK kinase Lanthascreen binding assay
Settings: Lanthascreen tracer competition, 60 minutes incubation; pIC50 = negative log of the IC50 in molar
Procedure, shortened: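 Tracer-displacement binding assay against the non-phosphorylated enzyme, read by Lanthascreen. Reported: pIC50.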

unphosphorylated-BTK kinase domain (UP-BTK), GST-tagged human BTK (389-659aa), sequence (Q06187 389-659): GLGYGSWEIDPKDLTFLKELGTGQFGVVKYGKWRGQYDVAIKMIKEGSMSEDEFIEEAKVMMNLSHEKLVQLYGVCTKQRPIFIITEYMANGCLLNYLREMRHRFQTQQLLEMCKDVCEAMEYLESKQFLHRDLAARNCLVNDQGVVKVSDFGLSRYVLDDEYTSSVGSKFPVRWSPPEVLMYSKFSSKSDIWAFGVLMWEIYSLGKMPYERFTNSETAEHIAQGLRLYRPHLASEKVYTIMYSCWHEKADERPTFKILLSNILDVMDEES

First: Cc1cc(Oc2ccccc2)ccc1N1C(=O)Nc2c(C(=O)N[C@@H]3CCCN(C(=O)/C=C/CN4CCCC4)C3)sc3nccc1c23 (single isomer, unassigned) [Example 845, (R,E)-5-(*S)-(2-Methyl-4-phenoxyphenyl)-4-oxo-N-(1-(4-(pyrrolidin-1-yl)but-2-enoyl)piperidin-3-yl)-4,5-dihydro-3H-1-thia-3,5,8-triazaacenaphthylene-2-carboxamide]
Second: Cc1cc(Oc2ccccc2)ccc1N1C(=O)Nc2c(C(=O)N[C@@H]3CCCN(C(=O)/C(C#N)=C/C(C)(C)C)C3)sc3nccc1c23 (single isomer, unassigned) [Example 866, (R,E)-N-(1-(2-Cyano-4,4-dimethylpent-2-enoyl)piperidin-3-yl)-5-(*S)-(2-methyl-4-phenoxyphenyl)-4-oxo-4,5-dihydro-3H-1-thia-3,5,8-triazaacenaphthylene-2-carboxamide]
The “BTK_I_binding pIC50” value of the first is higher: 7.6 for the first, 7.3 for the second.

Same assay, conditions: Lanthascreen tracer competition, 60 minutes incubation; pIC50 = negative log of the IC50 in molar; read-out: BTK_I_binding pIC50 (converted)

Going from `C=CC(=O)N1CC(NC(=O)c2sc3nccc4c3c2NC(=O)N4c2ccc(Oc3ccccc3)cc2)C[C@@H](O)C1` (stereo in doubt) [Example 589, N-((3R,5R)-1-Acryloyl-5-hydroxypiperidin-3-yl)-4-oxo-5-(4-phenoxyphenyl)-4,5-dihydro-3H-1-thia-3,5,8-triazaacenaphthylene-2-carboxamide] to `Cc1cc(Oc2ccccc2)ccc1N1C(=O)Nc2c(C(=O)NC3CCCN(C(=O)CC#N)C3)sc3nccc1c23` (stereo in doubt) [Example 874, (R)—N-(1-(2-cyanoacetyl)piperidin-3-yl)-5-(2-methyl-4-phenoxyphenyl)-4-oxo-4,5-dihydro-3H-1-thia-3,5,8-triazaacenaphthylene-2-carboxamide], the IC50 rises from 7.94 nM to 63.1 nM (7.9-fold).

Work on `Cc1cc(Oc2ccccc2)ccc1N1C(=O)Nc2c(C(=O)NC3CCCNC3)sc3nccc1c23` (stereo in doubt) [Example 869, (R)-5-(2-Methyl-4-phenoxyphenyl)-4-oxo-N-(piperidin-3-yl)-4,5-dihydro-3H-1-thia-3,5,8-triazaacenaphthylene-2-carboxamide] yielded an IC50 of 50.1 nM.

Same assay, conditions: pIC50 = negative log of the IC50 in molar; 60 minutes incubation, 50 nM Tracer 236

Going from `C=CC(=O)N1CC(F)C[C@@H](NC(=O)c2sc3nccc4c3c2NC(=O)N4c2ccc(Oc3ccccc3)cc2C)C1` (stereo in doubt) [Example 3, N-((3R,5S)-1-Acryloyl-5-fluoropiperidin-3-yl)-5-(2-methyl-4-phenoxyphenyl)-4-oxo-4,5-dihydro-3H-1-thia-3,5,8-triazaacenaphthylene-2-carboxamide] to `C=CC(=O)N1C[C@H](NC(=O)c2sc3nccc4c3c2NC(=O)N4c2ccc(Oc3ccccc3)cc2C)C[C@H](OC)C1` [Example 14, N-((3R,5S)-1-Acryloyl-5-methoxypiperidin-3-yl)-5-(2-methyl-4-phenoxyphenyl)-4-oxo-4,5-dihydro-3H-1-thia-3,5,8-triazaacenaphthylene-2-carboxamide], the “BTK_I_binding pIC50” value falls from 7.9 to 7.4.

First: Cc1cc(Oc2ccccc2)ccc1N1C(=O)Nc2c(C(=O)NC3CCCN(C(=O)/C=C/CO)C3)sc3nccc1c23 (stereo in doubt) [Example 25, (S,E)-N-(1-(4-Hydroxybut-2-enoyl)piperidin-3-yl)-5-(2-methyl-4-phenoxyphenyl)-4-oxo-4,5-dihydro-3H-1-thia-3,5,8-triazaacenaphthylene-2-carboxamide]
Second: C=CC(=O)N1CC[C@@H](NC(=O)c2sc3nccc4c3c2NC(=O)N4c2ccc(Oc3ccccc3)cc2C)C1 [Example 11, (R)—N-(1-Acryloylpyrrolidin-3-yl)-5-(2-methyl-4-phenoxyphenyl)-4-oxo-4,5-dihydro-3H-1-thia-3,5,8-triazaacenaphthylene-2-carboxamide]
The “BTK_I_binding pIC50” value of the first is lower: 7.5 for the first, 7.9 for the second.

Compared with `C=CC(=O)N1CC(O)[C@@H](NC(=O)c2sc3nccc4c3c2NC(=O)N4c2ccc(Oc3ccccc3)cc2C)C1` (stereo in doubt) [Example 50, N-((3S,4S)-1-Acryloyl-4-hydroxypyrrolidin-3-yl)-5-(2-methyl-4-phenoxyphenyl)-4-oxo-4,5-dihydro-3H-1-thia-3,5,8-triazaacenaphthylene-2-carboxamide], `C=CC(=O)N1CC[C@@H](NC(=O)c2sc3nccc4c3c2NC(=O)N4c2ccc(Oc3ccccc3)cc2Cl)C1` [Example 12, (R)—N-(1-Acryloylpyrrolidin-3-yl)-5-(2-chloro-4-phenoxyphenyl)-4-oxo-4,5-dihydro-3H-1-thia-3,5,8-triazaacenaphthylene-2-carboxamide] is higher in “BTK_I_binding pIC50” value: 7.5 for the first, 7.7 for the second.

Going from `Cc1cc(Oc2ccccc2F)ccc1N1C(=O)Nc2c(C(=O)NC3CCCN(C)C3)sc3nccc1c23` (stereo in doubt) [Example 57, (R)-5-(4-(2-Fluorophenoxy)-2-methylphenyl)-N-(1-methylpiperidin-3-yl)-4-oxo-4,5-dihydro-3H-1-thia-3,5,8-triazaacenaphthylene-2-carboxamide] to `C=CC(=O)N1CCC[C@@H](NC(=O)c2sc3nccc4c3c2NC(=O)N4c2ccc(Oc3ccccc3)c(F)c2C)C1` [Example 4, (R)—N-(1-Acryloylpiperidin-3-yl)-5-(3-fluoro-2-methyl-4-phenoxyphenyl)-4-oxo-4,5-dihydro-3H-1-thia-3,5,8-triazaacenaphthylene-2-carboxamide], the “BTK_I_binding pIC50” value rises from 6.8 to 7.7.

`C=CC(=O)N1CCC[C@@H](NC(=O)c2sc3nccc4c3c2NC(=O)N4c2ccc(Oc3ccccc3)cc2Cl)C1` [Example 15, (R)—N-(1-Acryloylpiperidin-3-yl)-5-(2-chloro-4-phenoxyphenyl)-4-oxo-4,5-dihydro-3H-1-thia-3,5,8-triazaacenaphthylene-2-carboxamide] was tested, and the “BTK_I_binding pIC50” value was 7.6.

Same assay, conditions: pIC50 = negative log of the IC50 in molar; 60 minutes incubation, 50 nM Tracer 236; read-out: BTK_I_binding pIC50 (converted)

Going from `C=CC(=O)N1CC(OC)[C@@H](NC(=O)c2sc3nccc4c3c2NC(=O)N4c2ccc(Oc3ccccc3)cc2C)C1` (stereo in doubt) [Example 34, N-((3S,4R)-1-Acryloyl-4-methoxypyrrolidin-3-yl)-5-(2-methyl-4-phenoxyphenyl)-4-oxo-4,5-dihydro-3H-1-thia-3,5,8-triazaacenaphthylene-2-carboxamide] to `C=CC(=O)N1C[C@H](NC(=O)c2sc3nccc4c3c2NC(=O)N4c2ccc(Oc3ccccc3)cc2C)C[C@@H](OC)C1` [Example 8, N-((3R,5R)-1-Acryloyl-5-methoxypiperidin-3-yl)-5-(2-methyl-4-phenoxyphenyl)-4-oxo-4,5-dihydro-3H-1-thia-3,5,8-triazaacenaphthylene-2-carboxamide], the IC50 falls from 25.1 nM to 15.8 nM (1.6-fold).

First: C=CC(=O)N1C[C@H](F)C[C@@H](NC(=O)c2sc3nccc4c3c2NC(=O)N4c2ccc(Oc3ccccc3)cc2C)C1 [Example 1, N-((3R,5R)-1-Acryloyl-5-fluoropiperidin-3-yl)-5-(2-methyl-4-phenoxyphenyl)-4-oxo-4,5-dihydro-3H-1-thia-3,5,8-triazaacenaphthylene-2-carboxamide]
Second: C=CC(=O)N1C[C@H](O)C[C@@H](NC(=O)c2sc3nccc4c3c2NC(=O)N4c2ccc(Oc3ccccc3)cc2C)C1 [Example 6, N-((3R,5R)-1-Acryloyl-5-hydroxypiperidin-3-yl)-5-(2-methyl-4-phenoxyphenyl)-4-oxo-4,5-dihydro-3H-1-thia-3,5,8-triazaacenaphthylene-2-carboxamide]
The IC50 of the first is 1.6-fold higher: 20 nM for the first, 12.6 nM for the second.

First: C=CC(=O)N1CC[C@@H](NC(=O)c2sc3nccc4c3c2NC(=O)N4c2ccc(Oc3ccccc3)c(F)c2C)C1 [Example 7, (R)—N-(1-Acryloylpyrrolidin-3-yl)-5-(3-fluoro-2-methyl-4-phenoxyphenyl)-4-oxo-4,5-dihydro-3H-1-thia-3,5,8-triazaacenaphthylene-2-carboxamide]
Second: C=CC(=O)N1CCC[C@@H](NC(=O)c2sc3nccc4c3c2NC(=O)N4c2ccc(Oc3ccccc3)cc2F)C1 [Example 10, (R)—N-(1-Acryloylpiperidin-3-yl)-5-(2-fluoro-4-phenoxyphenyl)-4-oxo-4,5-dihydro-3H-1-thia-3,5,8-triazaacenaphthylene-2-carboxamide]
The IC50 of the first is 1.6-fold higher: 12.6 nM for the first, 7.94 nM for the second.

`C=CC(=O)N1C[C@@H](O)C[C@@H](NC(=O)c2sc3nccc4c3c2NC(=O)N4c2ccc(Oc3ccccc3)cc2C)C1` [Example 13, N-((3R,5S)-1-Acryloyl-5-hydroxypiperidin-3-yl)-5-(2-methyl-4-phenoxyphenyl)-4-oxo-4,5-dihydro-3H-1-thia-3,5,8-triazaacenaphthylene-2-carboxamide] gave an IC50 of 15.8 nM.

Same assay, conditions: unphosphorylated-BTK kinase domain, 60 minutes incubation, 50 nM Tracer 236; pIC50 = negative log of the IC50 in molar

Going from `C=CC(=O)N1CC[C@@H](NC(=O)c2sc3nccc4c3c2NC(=O)N4c2cnc(OC(C)C)cc2C)C1` (single isomer, unassigned) [Example 959, (R)—N-(1-Acryloylpyrrolidin-3-yl)-5-(*S)-(6-isopropoxy-4-methylpyridin-3-yl)-4-oxo-4,5-dihydro-3H-1-thia-3,5,8-triazaacenaphthylene-2-carboxamide] to `O=C(NC1CCCN(C(=O)CCCl)C1)c1sc2nccc3c2c1NC(=O)N3c1ccc(Oc2ccccc2)cn1` (stereo in doubt) [Example 906, (R)—N-(1-(3-Chloropropanoyl)piperidin-3-yl)-4-oxo-5-(5-phenoxypyridin-2-yl)-4,5-dihydro-3H-1-thia-3,5,8-triazaacenaphthylene-2-carboxamide], the “BTK_I_binding pIC50” value falls from 7.5 to 6.7.

In the case of `O=C(NC1CCNC1)c1sc2nccc3c2c1NC(=O)N3c1ccc(Oc2ccccc2)cc1` (stereo in doubt) [Example 934, (S)-4-Oxo-5-(4-phenoxyphenyl)-N-(pyrrolidin-3-yl)-4,5-dihydro-3H-1-thia-3,5,8-triazaacenaphthylene-2-carboxamide], the “BTK_I_binding pIC50” value is reported as 6.1.
